Holding throughout (type): functional
Experiment [1] in a line: Antioxidant activity assessed as trolox equivalent of singlet oxygen scavenging activity by TMPD spin trap-based ESR spectrometric method.
Experiment [2] in a line: Antioxidant activity assessed as trolox equivalent of methyl radical scavenging activity by DMPO spin trap-based ESR spectrometric method.
The nature of experiment [3]: Antioxidant activity assessed as trolox equivalent of superoxide radical scavenging activity by CYPMPO spin trap-based ESR spectrometric method.
Experiment [4] in a line: Antioxidant activity assessed as trolox equivalent of tert-butyl peroxyl radical scavenging activity by CYPMPO spin trap-based ESR spectrometric method.
Experiment [5] in a line: Antioxidant activity assessed as trolox equivalent of alkoxyl radical scavenging activity by DMPO spin trap-based ESR spectrometric method.
A short description of experiment [6]: Antioxidant activity assessed as trolox equivalent of hydroxyl radical scavenging activity by DMPO spin trap-based ESR spectrometric method.
A short description of experiment [7]: Antioxidant activity assessed as rate of methyl radical scavenging activity by DMPO spin trap-based ESR spectrometric method.

On to `C=CC(C)(O)CCC=C(C)C` (configuration not stated), for which the Activity in experiment [1] turned out to be 0.046 equiv; in experiment [2], 0 equiv; in experiment [3], 0.27 equiv; in experiment [4], 0 equiv; in experiment [5], 0.045 equiv; in experiment [6], 0.38 equiv.

Consider `CC1CCC(C(C)C)C(O)C1` (configuration not stated), for which the Activity in experiment [1] turned out to be 0.22 equiv; in experiment [2] it was 0 equiv; in experiment [3], 0.39 equiv; in experiment [4], 0.31 equiv; in experiment [5] it was 0 equiv; in experiment [6], 0.49 equiv.

In the case of `Cc1ccc(C(C)C)c(O)c1`, the Activity worked out at 0.16 equiv in experiment [1]; 0 equiv in experiment [2]; 0.24 equiv in experiment [3]; 0.22 equiv in experiment [4]; 0.013 equiv in experiment [5]; 0.3 equiv in experiment [6].

Turning to `NCCS`, the Activity came to 1.1 equiv in experiment [1]; 0.18 equiv in experiment [2]; 0.13 equiv in experiment [3]; 0.08 equiv in experiment [4]; 0.045 equiv in experiment [5]; 1.5 equiv in experiment [6]. For the same compound, the K in experiment [7] is 2.5 ×10⁶ /M/s.

As for `NCCCNCCSP(=O)(O)O`, the Activity in experiment [1] was found to be 0.17 equiv; in experiment [2], 0.2 equiv; in experiment [3] it was 0.3 equiv; in experiment [4], 0.058 equiv; in experiment [5], 0.054 equiv; in experiment [6], 0.76 equiv. Besides, the K in experiment [7] came out at 2.8 ×10⁶ /M/s.

Values taken from ChEMBL document CHEMBL4229523, “Monoterpene's multiple free radical scavenging capacity as compared with the radioprotective agent cysteamine and amifostine” (Bioorg Med Chem Lett, 2018).
